# Results reported in PubChem BioAssay AID330 (DTP/NCI, 2004).
# Several values for one entry are separate records, joined by “and”; a condition that tells them apart may be missing. Equal values may be shown once. Inconclusive results and toxic doses are left out.
# System: P388 leukemia ip, CD2F1 mice, survival T/C
# Assay: NCI In Vivo Anticancer Drug Screen. Data for tumor model P388 Leukemia (intraperitoneal) in CD2F1 (CDF1) mice
# Conditions: endpoint: median survival time, higher = longer survival
# In short: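 Mice carrying the transplanted tumor received test compound or vehicle. Survival was recorded in each group, and the value is the treated-group measurement divided by that of the vehicle-treated control group.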
# [1] = dose: 25.0 mg/kg/injection, schedule: Q01DX009 (ip), vehicle: saline with Tween-80
# [2] = dose: 50.0 mg/kg/injection, schedule: Q01DX009 (ip), vehicle: saline with Tween-80
# [3] = dose: 100.0 mg/kg/injection, schedule: Q01DX009 (ip), vehicle: saline with Tween-80
# [4] = dose: 200.0 mg/kg/injection, schedule: Q01DX009 (ip), vehicle: saline with Tween-80
# [5] = dose: 100.0 mg/kg/injection, schedule: Q04DX003 (ip), vehicle: saline with Tween-80
# [6] = dose: 60.0 mg/kg/injection, schedule: Q01DX005 (ip), vehicle: saline with Tween-80
# [7] = dose: 120.0 mg/kg/injection, schedule: Q01DX005 (ip), vehicle: saline with Tween-80
# [8] = dose: 240.0 mg/kg/injection, schedule: Q01DX005 (ip), vehicle: saline with Tween-80
# [9] = dose: 50.0 mg/kg/injection, schedule: Q01DX009 (ip), vehicle: saline
# [10] = dose: 100.0 mg/kg/injection, schedule: Q01DX009 (ip), vehicle: saline
# [11] = dose: 200.0 mg/kg/injection, schedule: Q01DX009 (ip), vehicle: saline
# [12] = dose: 50.0 mg/kg/injection, schedule: Q01DX005 (ip), vehicle: Klucel (hydroxypropylcellulose) (HPC)
# [13] = dose: 100.0 mg/kg/injection, schedule: Q01DX005 (ip), vehicle: Klucel (hydroxypropylcellulose) (HPC)
# [14] = dose: 200.0 mg/kg/injection, schedule: Q01DX005 (ip), vehicle: Klucel (hydroxypropylcellulose) (HPC)
# [15] = dose: 50.0 mg/kg/injection, schedule: Q01DX005 (ip), vehicle: saline with Tween-80
# [16] = dose: 100.0 mg/kg/injection, schedule: Q01DX005 (ip), vehicle: saline with Tween-80
# [17] = dose: 200.0 mg/kg/injection, schedule: Q01DX005 (ip), vehicle: saline with Tween-80
# [18] = dose: 25.0 mg/kg/injection, schedule: Q01DX009 (ip), vehicle: Klucel (hydroxypropylcellulose) (HPC)
# [19] = dose: 50.0 mg/kg/injection, schedule: Q01DX009 (ip), vehicle: Klucel (hydroxypropylcellulose) (HPC)
# [20] = dose: 100.0 mg/kg/injection, schedule: Q01DX009 (ip), vehicle: Klucel (hydroxypropylcellulose) (HPC)
# [21] = dose: 200.0 mg/kg/injection, schedule: Q01DX009 (ip), vehicle: Klucel (hydroxypropylcellulose) (HPC)
structure (smiles),measurement,setting,value
CCOC(=O)c1ccc[nH]1,T/C,[1],104 % of control
same,T/C,[2],108 % of control
same,T/C,[3],112 % of control
same,T/C,[4],103 % of control
CN(C)/C=N\c1ncnc2c1ncn2C1OC(CO)C(O)C1O (stereo not given),T/C,"dose: 6.25 mg/kg/injection, schedule: Q01DX009 (ip), vehicle: saline with Tween-80",104 % of control
same,T/C,"dose: 12.5 mg/kg/injection, schedule: Q01DX009 (ip), vehicle: saline with Tween-80",98 % of control
same,T/C,[1],102 % of control
same,T/C,[2],99 % of control
same,T/C,[3],95 % of control
CCN(CCO)CC(C)Nc1ccc([N+](=O)[O-])c2sc3ccccc3c(=O)c12 (stereo not given),T/C,[1],159 % of control
same,T/C,[2],190 % of control and 213 % of control
same,T/C,"dose: 66.0 mg/kg/injection, schedule: Q04DX003 (ip), vehicle: saline with Tween-80",159 % of control
same,T/C,[3],100 % of control
same,T/C,[5],213 % of control
same,T/C,"dose: 150.0 mg/kg/injection, schedule: Q04DX003 (ip), vehicle: saline with Tween-80",118 % of control
Cn1c2cc3ccccc3cc2nc2cc3c(cc21)c(Cl)c(=O)c1ccccc13,T/C,[2],109 % of control
same,T/C,[3],99 % of control
same,T/C,[4],100 % of control
Cc1ccc(N2C(=O)CSC2=S)cc1C,T/C,"dose: 50.0 mg/kg/injection, schedule: Q01DX009 (ip), vehicle: suspension in saline",90 % of control
same,T/C,"dose: 100.0 mg/kg/injection, schedule: Q01DX009 (ip), vehicle: suspension in saline",90 % of control
same,T/C,"dose: 200.0 mg/kg/injection, schedule: Q01DX009 (ip), vehicle: suspension in saline",103 % of control
CSc1nc2c(nnn2C2OCC(O)C(O)C2O)c(=O)[nH]1 (stereo not given),T/C,[6],93 % of control
same,T/C,[7],93 % of control
same,T/C,[8],86 % of control
O=C(O)CN(CC(=O)O)Cc1cc(=O)[nH]c(=O)[nH]1,T/C,[9],91 % of control
same,T/C,[10],95 % of control
same,T/C,[11],97 % of control
COC(=O)C(COS(=O)(=O)c1ccc(C)cc1)NC(=O)OCc1ccc(OC)cc1 (stereo not given),T/C,"dose: 12.5 mg/kg/injection, schedule: Q01DX009 (ip), vehicle: water",98 % of control
same,T/C,"dose: 25.0 mg/kg/injection, schedule: Q01DX009 (ip), vehicle: water",95 % of control
same,T/C,"dose: 50.0 mg/kg/injection, schedule: Q01DX009 (ip), vehicle: water",89 % of control
same,T/C,"dose: 100.0 mg/kg/injection, schedule: Q01DX009 (ip), vehicle: water",91 % of control
same,T/C,"dose: 200.0 mg/kg/injection, schedule: Q01DX009 (ip), vehicle: water",91 % of control
Cn1c2c(F)cccc2c(=O)c2c(O)cc3c(c21)C=CC(C)(C)O3,T/C,[12],96 % of control
same,T/C,[13],91 % of control
same,T/C,[14],94 % of control
CCOc1c(N=Nc2ccccc2OC)c(-c2ccccc2)nn1C(=S)S,T/C,[15],102 % of control
same,T/C,[16],101 % of control
same,T/C,[17],108 % of control
COc1ccccc1N=NC(C#N)C(N)=O (stereo not given),T/C,[1],102 % of control
same,T/C,[2],101 % of control
CSC(=S)n1nc(C)c(N=Nc2ccccc2[N+](=O)[O-])c1C,T/C,"dose: 100.0 mg/kg/injection, schedule: Q01DX001 (ip), vehicle: Klucel (hydroxypropylcellulose) (HPC)",111 % of control
same,T/C,"dose: 200.0 mg/kg/injection, schedule: Q01DX001 (ip), vehicle: Klucel (hydroxypropylcellulose) (HPC)",96 % of control
same,T/C,"dose: 400.0 mg/kg/injection, schedule: Q01DX001 (ip), vehicle: Klucel (hydroxypropylcellulose) (HPC)",106 % of control
C=CCNC(=O)/C=C\C(=O)O,T/C,"dose: 37.5 mg/kg/injection, schedule: Q01DX009 (ip), vehicle: saline with Tween-80",98 % of control
same,T/C,"dose: 75.0 mg/kg/injection, schedule: Q01DX009 (ip), vehicle: saline with Tween-80",94 % of control
same,T/C,"dose: 150.0 mg/kg/injection, schedule: Q01DX009 (ip), vehicle: saline with Tween-80",94 % of control
same,T/C,"dose: 300.0 mg/kg/injection, schedule: Q01DX009 (ip), vehicle: saline with Tween-80",100 % of control
NC(=O)c1ncn(C2OC(COP(=O)(O)O)C(O)C2O)n1 (stereo not given),T/C,[9],104 % of control and 106 % of control
same,T/C,[10],107 % of control and 109 % of control
same,T/C,[11],113 % of control and 120 % of control
CC(=O)Nn1nnc2ccccc2c1=O,T/C,[15],97 % of control
same,T/C,[16],110 % of control
same,T/C,[17],110 % of control
O=C(CC(=O)C(F)(F)C(F)(F)C(F)(F)F)c1csc2ccccc12,T/C,[5],109 % of control
C=C(C)C(=O)Oc1ccccc1/C=C/C(=O)CCCCCC,T/C,[15],98 % of control
same,T/C,[16],96 % of control
same,T/C,[17],88 % of control
Cc1cc(=O)n(C)c2ccc(N)cc12,T/C,[18],101 % of control
same,T/C,[19],100 % of control
same,T/C,[20],101 % of control
CC(C)Oc1ccc(C(=O)NS(=O)(=O)c2ccc(N=CC3C(=O)N(c4ccccc4)N(c4ccccc4)C3=O)cc2)cc1,T/C,[20],92 % of control
same,T/C,[21],86 % of control
[Br][Sn]([Br])([CH2][Sn]([Br])([c]1ccccc1)[c]1ccccc1)[c]1ccccc1,T/C,"dose: 12.5 mg/kg/injection, schedule: Q01DX005 (ip), vehicle: Klucel (hydroxypropylcellulose) (HPC)",124 % of control
Nc1ncnc2c1ccn2C1OC(CSCCC(N)C(=O)O)C(O)C1O (stereo not given),T/C,"dose: 0.5 mg/kg/injection, schedule: Q01DX009 (ip), vehicle: water",98 % of control
same,T/C,"dose: 1.0 mg/kg/injection, schedule: Q01DX009 (ip), vehicle: water",102 % of control
same,T/C,"dose: 2.0 mg/kg/injection, schedule: Q01DX009 (ip), vehicle: water",97 % of control
same,T/C,"dose: 4.0 mg/kg/injection, schedule: Q01DX009 (ip), vehicle: water",93 % of control
same,T/C,"dose: 8.0 mg/kg/injection, schedule: Q01DX009 (ip), vehicle: water",104 % of control
CCCCCCCCCCCC(=O)NC(=O)N1CCOCC1,T/C,"dose: 100.0 mg/kg/injection, schedule: Q01DX001 (ip), vehicle: saline with Tween-80",95 % of control
same,T/C,"dose: 200.0 mg/kg/injection, schedule: Q01DX001 (ip), vehicle: saline with Tween-80",100 % of control
same,T/C,"dose: 400.0 mg/kg/injection, schedule: Q01DX001 (ip), vehicle: saline with Tween-80",100 % of control
CC1(C)C2=CC3(C)N(CN2c2ccccc21)c1ccccc1C3(C)C (stereo not given),T/C,"dose: 60.0 mg/kg/injection, schedule: Q01DX005 (ip), vehicle: Klucel (hydroxypropylcellulose) (HPC)",92 % of control
same,T/C,"dose: 120.0 mg/kg/injection, schedule: Q01DX005 (ip), vehicle: Klucel (hydroxypropylcellulose) (HPC)",95 % of control
same,T/C,"dose: 240.0 mg/kg/injection, schedule: Q01DX005 (ip), vehicle: Klucel (hydroxypropylcellulose) (HPC)",95 % of control
NC(CSCC(=O)O)C(=O)O (stereo not given),T/C,[18],95 % of control
same,T/C,[19],111 % of control
same,T/C,[20],105 % of control
same,T/C,[21],98 % of control
O=C(Nc1ccc(N=C(Nc2ccccc2)c2ccccc2)cc1)c1ccc(C(=O)Nc2ccc(N=C(Nc3ccccc3)c3ccccc3)cc2)cc1,T/C,"dose: 25.0 mg/kg/injection, schedule: Q01DX005 (ip), vehicle: Klucel (hydroxypropylcellulose) (HPC)",98 % of control
same,T/C,[12],91 % of control
same,T/C,[13],91 % of control
same,T/C,[14],86 % of control
CCCNC(=S)Nc1ccc(F)cc1F,T/C,"dose: 3.12 mg/kg/injection, schedule: Q01DX009 (ip), vehicle: other",108 % of control
same,T/C,"dose: 6.25 mg/kg/injection, schedule: Q01DX009 (ip), vehicle: other",107 % of control and 110 % of control and 89 % of control
same,T/C,"dose: 12.5 mg/kg/injection, schedule: Q01DX009 (ip), vehicle: other",99 % of control and 100 % of control and 101 % of control
same,T/C,"dose: 25.0 mg/kg/injection, schedule: Q01DX009 (ip), vehicle: other",108 % of control and 121 % of control and 96 % of control
O=[N+]([O-])c1ccc(-c2nnn(Cc3ccco3)c2N2CCCCC2)cc1,T/C,[12],105 % of control
same,T/C,[13],105 % of control
same,T/C,[14],107 % of control
COC(=O)C(C)N(CCCl)P1(=O)OCCCN1CCCl (stereo not given),T/C,[6],108 % of control
same,T/C,"dose: 60.0 mg/kg/injection, schedule: Q01DX005 (ip), vehicle: saline",99 % of control
same,T/C,[7],124 % of control
same,T/C,[8],165 % of control
same,T/C,"dose: 240.0 mg/kg/injection, schedule: Q01DX005 (ip), vehicle: saline",297 % of control
same,T/C,"dose: 400.0 mg/kg/injection, schedule: Q01DX005 (ip), vehicle: saline with Tween-80",252 % of control
